Key:
[1] = target: CDK2/cyclin E (Homo sapiens, UniProt P24941); assay: Kinase assay, radioactive phosphate incorporation, CDK2/cyclin E; assay type: biochemical; conditions: 100 μM ATP, 30° C.; read-out: Kinase inhibition IC50 CDK2/cyclin E
Description: (§1) The compounds from the examples above were investigated for their ability to inhibit the enzymatic activity of various protein kinases. This was achieved by measurement of incorporation of radioactive phosphate from ATP into appropriate polypeptide substrates. Recombinant protein kinases and kinase complexes were produced or obtained commercially. Assays were performed using 96-well plates and appropriate assay buffers (typically 25 mM β-glycerophosphate, 20 mM MOPS, 5 MM EGTA, 1 mM DTT, 1 mM Na3VO3, pH 7.4), into which were added 2-4 μg of active enzyme with appropriate substrates. The reactions were initiated by addition of Mg/ATP mix (15 mM MgCl2+100 μM ATP with 30-50 kBq per well of [γ-^32P]-ATP) and mixtures incubated as required at 30° C. Reactions were stopped on ice, followed by filtration through p81 filterplates or GF/C filterplates (Whatman Polyfiltronics, Kent, UK). After washing 3 times with 75 mM aq orthophosphoric acid, plates were dried, scintillant added and incorporated radioactivity measured in a scintillation counter (TopCount, Packard Instruments, Pangbourne, Berks, UK). Compounds for kinase assay were made up as 10 mM stocks in DMSO and diluted into 10% DMSO in assay buffer.

[2] = target: CDK4/cyclin D1 (Homo sapiens, UniProt P11802); assay: Kinase assay, radioactive phosphate incorporation, CDK4/cyclin D1; assay type: biochemical; conditions: 100 μM ATP, 30° C.; read-out: Kinase inhibition IC50 CDK4/cyclin D1
Chain of CDK4/cyclin D1 (P11802 whole entry, species assumed): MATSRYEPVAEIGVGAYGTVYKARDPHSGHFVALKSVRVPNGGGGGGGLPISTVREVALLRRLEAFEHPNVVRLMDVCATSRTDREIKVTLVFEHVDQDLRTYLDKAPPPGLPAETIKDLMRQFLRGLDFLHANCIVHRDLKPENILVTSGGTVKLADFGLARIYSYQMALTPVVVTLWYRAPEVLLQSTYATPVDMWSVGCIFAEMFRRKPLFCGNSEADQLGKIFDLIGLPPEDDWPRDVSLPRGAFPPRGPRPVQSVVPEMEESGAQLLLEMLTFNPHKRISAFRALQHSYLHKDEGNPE
Chain of CDK4/cyclin D1 (P24385 whole entry partner, species assumed): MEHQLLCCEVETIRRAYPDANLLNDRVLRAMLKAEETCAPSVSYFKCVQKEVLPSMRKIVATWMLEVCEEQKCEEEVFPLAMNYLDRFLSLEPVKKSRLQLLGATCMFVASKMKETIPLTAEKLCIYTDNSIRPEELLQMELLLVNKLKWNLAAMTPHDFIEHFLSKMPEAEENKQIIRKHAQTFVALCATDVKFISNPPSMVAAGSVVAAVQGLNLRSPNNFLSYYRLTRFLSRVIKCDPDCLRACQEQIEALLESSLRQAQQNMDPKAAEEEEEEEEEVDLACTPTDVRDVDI
Description: as §1

[3] = target: CDK7/cyclin H (Homo sapiens, UniProt P50613); assay: Kinase assay, radioactive phosphate incorporation, CDK7/cyclin H; assay type: biochemical; conditions: 100 μM ATP, 30° C.; read-out: Kinase inhibition IC50 CDK7/cyclin H
Chain of CDK7/cyclin H (P50613 whole entry, species assumed): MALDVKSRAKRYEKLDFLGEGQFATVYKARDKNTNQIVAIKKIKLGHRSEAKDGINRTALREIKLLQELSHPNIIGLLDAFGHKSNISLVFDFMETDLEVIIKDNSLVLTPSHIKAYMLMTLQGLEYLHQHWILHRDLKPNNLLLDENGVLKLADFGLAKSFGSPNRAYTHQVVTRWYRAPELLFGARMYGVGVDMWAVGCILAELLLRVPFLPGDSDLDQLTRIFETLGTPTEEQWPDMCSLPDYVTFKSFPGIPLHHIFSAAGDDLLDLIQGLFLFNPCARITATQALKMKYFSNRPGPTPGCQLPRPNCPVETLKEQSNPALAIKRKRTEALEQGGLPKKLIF
Chain of CDK7/cyclin H (P51946 whole entry partner, species assumed): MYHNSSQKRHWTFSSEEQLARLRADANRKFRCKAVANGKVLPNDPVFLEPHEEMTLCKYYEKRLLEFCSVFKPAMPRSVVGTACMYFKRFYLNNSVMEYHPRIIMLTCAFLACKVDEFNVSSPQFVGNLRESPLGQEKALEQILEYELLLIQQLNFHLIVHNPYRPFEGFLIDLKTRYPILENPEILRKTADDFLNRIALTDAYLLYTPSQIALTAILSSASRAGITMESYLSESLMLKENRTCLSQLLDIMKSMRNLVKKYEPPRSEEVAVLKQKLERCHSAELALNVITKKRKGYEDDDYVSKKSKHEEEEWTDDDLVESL
Description: as §1

[4] = target: CDK9/cyclin T1 (Homo sapiens, UniProt P50750); assay: Kinase assay, radioactive phosphate incorporation, CDK9/cyclin T1; assay type: biochemical; conditions: 100 μM ATP, 30° C.; read-out: Kinase inhibition IC50 CDK9/cyclin T1
Chain of CDK9/cyclin T1 (P50750 whole entry, species assumed): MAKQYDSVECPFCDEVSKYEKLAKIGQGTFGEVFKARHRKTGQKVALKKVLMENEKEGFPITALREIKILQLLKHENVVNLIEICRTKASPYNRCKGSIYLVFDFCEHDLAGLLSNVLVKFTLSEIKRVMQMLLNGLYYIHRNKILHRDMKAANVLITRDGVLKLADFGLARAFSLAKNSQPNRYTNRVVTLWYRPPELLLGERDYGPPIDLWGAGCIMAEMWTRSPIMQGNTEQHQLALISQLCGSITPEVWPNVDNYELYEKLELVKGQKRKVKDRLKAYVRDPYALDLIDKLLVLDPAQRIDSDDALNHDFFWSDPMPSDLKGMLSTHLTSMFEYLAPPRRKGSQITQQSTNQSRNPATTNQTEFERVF
Chain of CDK9/cyclin T1 (O60563 whole entry partner, species assumed): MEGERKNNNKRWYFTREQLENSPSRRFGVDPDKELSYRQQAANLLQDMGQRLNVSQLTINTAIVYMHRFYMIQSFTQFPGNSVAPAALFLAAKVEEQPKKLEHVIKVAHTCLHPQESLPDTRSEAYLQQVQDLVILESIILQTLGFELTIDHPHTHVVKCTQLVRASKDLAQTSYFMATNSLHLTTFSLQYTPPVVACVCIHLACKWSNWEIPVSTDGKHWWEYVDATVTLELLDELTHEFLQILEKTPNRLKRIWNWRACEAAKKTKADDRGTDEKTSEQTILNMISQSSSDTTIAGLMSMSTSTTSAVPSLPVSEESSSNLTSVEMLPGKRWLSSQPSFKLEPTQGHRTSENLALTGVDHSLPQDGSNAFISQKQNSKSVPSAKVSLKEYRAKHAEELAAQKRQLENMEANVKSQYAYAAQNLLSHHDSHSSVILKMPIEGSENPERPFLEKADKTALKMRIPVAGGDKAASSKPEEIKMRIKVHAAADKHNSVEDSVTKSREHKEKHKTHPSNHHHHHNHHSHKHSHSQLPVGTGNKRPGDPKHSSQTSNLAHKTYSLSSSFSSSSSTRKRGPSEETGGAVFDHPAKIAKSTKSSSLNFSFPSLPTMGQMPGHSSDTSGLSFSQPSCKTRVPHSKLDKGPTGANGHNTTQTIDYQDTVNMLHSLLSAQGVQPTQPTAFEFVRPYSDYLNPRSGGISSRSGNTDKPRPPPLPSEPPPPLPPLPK
Description: as §1

[5] = target: GSK3β (Homo sapiens, UniProt P49841); assay: Kinase assay, radioactive phosphate incorporation, GSK3β; assay type: biochemical; conditions: 100 μM ATP, 30° C.; read-out: Kinase inhibition IC50 GSK3β
Chain of GSK3β (P49841 whole entry, species assumed): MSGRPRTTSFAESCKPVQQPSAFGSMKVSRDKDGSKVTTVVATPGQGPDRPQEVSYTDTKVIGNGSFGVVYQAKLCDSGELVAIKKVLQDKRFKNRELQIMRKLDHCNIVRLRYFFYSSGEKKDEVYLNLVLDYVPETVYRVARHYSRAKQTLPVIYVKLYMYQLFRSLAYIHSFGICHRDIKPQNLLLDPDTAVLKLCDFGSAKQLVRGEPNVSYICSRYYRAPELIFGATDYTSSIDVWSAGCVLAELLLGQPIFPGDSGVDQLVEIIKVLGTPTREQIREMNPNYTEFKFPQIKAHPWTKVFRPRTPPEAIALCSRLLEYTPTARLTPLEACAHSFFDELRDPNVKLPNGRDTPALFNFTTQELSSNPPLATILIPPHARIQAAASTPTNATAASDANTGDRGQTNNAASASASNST
Description: as §1

[6] = target: CDK2/cyclin A (Homo sapiens, UniProt P24941); assay: Kinase assay, radioactive phosphate incorporation, CDK2/cyclin A; assay type: biochemical; conditions: 100 μM ATP, 30° C.; read-out: Kinase inhibition IC50 CDK2/cyclin A
Description: as §1

[7] = test system: A549; assay: 72-h MTT cytotoxicity assay, A549; assay type: cell-based; conditions: Homo sapiens, read-out: 72-h MTT IC50 A549, A549 cell line
Description: (§2) The compounds from the examples above were subjected to a standard cellular proliferation assay using human tumour cell lines obtained from the ATCC (American Type Culture Collection, 10801 University Boulevard, Manessas, Va. 20110-2209, USA). Standard 72-h MTT (thiazolyl blue; 3-[4,5-dimethylthiazol-2-yl]-2,5-diphenyltetrazolium bromide) assays were performed. In short: cells were seeded into 96-well plates according to doubling time and incubated overnight at 37° C. Test compounds were made up in DMSO and a 1/3 dilution series prepared in 100 μL cell media, added to cells (in triplicates) and incubated for 72 ho at 37° C. MTT was made up as a stock of 5 mg/mL in cell media and filter-sterilised. Media was removed from cells followed by a wash with 200 μL PBS. MTT solution was then added at 20 μL per well and incubated in the dark at 37° C. for 4 h. MTT solution was removed and cells again washed with 200 μL PBS. MTT dye was solubilised with 200 μL per well of DMSO with agitation.

[8] = test system: HT29; assay: 72-h MTT cytotoxicity assay, HT29; assay type: cell-based; conditions: Homo sapiens, HT-29, read-out: 72-h MTT IC50 HT29, HT29 cell line
Description: as §2

[9] = test system: Saos-2; assay: 72-h MTT cytotoxicity assay, Saos-2; assay type: cell-based; conditions: Homo sapiens, read-out: 72-h MTT IC50 Saos-2, Saos-2 cell line
Description: as §2

[10] = test system: transformed human cell lines (A549, HT29, Saos-2); assay: 72-h MTT cytotoxicity assay, average of cell lines; assay type: cell-based; conditions: read-out: 72-h MTT IC50 Average, average of A549, HT29, Saos-2
Description: as §2

Row | SMILES | IC50 [1] | IC50 [2] | IC50 [3] | IC50 [4] | IC50 [5] | IC50 [6] | IC50 [7] | IC50 [8] | IC50 [9] | IC50 [10]
1 | O=[N+]([O-])c1cccc(Nc2nccc(-c3ccc(Cl)c(Cn4cncn4)c3)n2)c1 [Compound 47, [4-(4-Chloro-3-[1,2,4]triazol-1-ylmethyl-phenyl)-pyrimidin-2-yl]-(3-nitro-phenyl)-amine] | 1.4 µM | 28 µM | 20 µM | 1.3 µM | 0.13 µM | – | – | – | – | –
2 | COc1ccc(Nc2nccc(-c3cccc(CN4CCN(C)CC4)c3)n2)cn1 [Compound 58, (6-Methoxy-pyridin-3-yl)-{4-[3-(4-methyl-piperazin-1-ylmethyl)-phenyl]-pyrimidin-2-yl}-amine] | – | 11 µM | 36 µM | 0.19 µM | – | 10 µM | 7 µM | 5.7 µM | 9.6 µM | 7.4 ± 2 µM
3 | COc1ccc(Nc2nccc(-c3cccc(CN4CCCCC4CO)c3)n2)cn1 (stereo not shown) [Compound 102, (1-{3-[2-(6-Methoxy-pyridin-3-ylamino)-pyrimidin-4-yl]-benzyl}-piperidin-2-yl)-methanol] | – | – | 1.4 µM | 0.49 µM | – | – | 17 µM | 11.1 µM | 23.4 µM | 17.2 ± 6.2 µM
4 | COc1ccc(Nc2nccc(-c3cccc(C#N)c3)n2)cn1 [Compound 51, 3-[2-(6-Methoxy-pyridin-3-ylamino)-pyrimidin-4-yl]-benzonitrile] | 7 µM | – | 28 µM | 3 µM | 0.37 µM | – | 35.7 µM | 10.3 µM | 67 µM | 37.7 ± 28.4 µM
5 | c1ccc(Nc2nccc(-c3ccccc3)n2)cc1 [Compound 37, Phenyl-(4-phenyl-pyrimidin-2-yl)-amine] | 18 µM | – | – | – | – | – | 22 µM | 15.2 µM | 60.7 µM | 32.6 ± 24.5 µM
6 | Clc1ccc(Nc2nccc(-c3cccc(CNCc4ccccc4)c3)n2)cn1 [Compound 48, {4-[3-(Benzylamino-methyl)-phenyl]-pyrimidin-2-yl}-(6-chloro-pyridin-3-yl)-amine] | 1.3 µM | 3.5 µM | 1.7 µM | 1.2 µM | 0.32 µM | 9.8 µM | 13.4 µM | 5.1 µM | 20.4 µM | 13 ± 7.7 µM
7 | Oc1ccc(Nc2nccc(-c3cccc(Cn4cncn4)c3)n2)cc1 [Compound 33, 4-[4-(3-[1,2,4]triazol-1-ylmethyl-phenyl)-pyrimidin-2-ylamino]-phenol] | 0.14 µM | 9.1 µM | 1.1 µM | 0.092 µM | 0.12 µM | 2 µM | 10.3 µM | 20.7 µM | 7.4 µM | 12.8 ± 7 µM
8 | COc1ccc(OC)c(-c2ccnc(Nc3ccc(O)cc3)n2)c1 [Compound 45, 4-[4-(2,5-Dimethoxy-phenyl)-pyrimidin-2-ylamino]-phenol] | 5.8 µM | 28 µM | 16 µM | 25 µM | 3.6 µM | – | 25.9 µM | 8.1 µM | 17.4 µM | 17.1 ± 8.9 µM
9 | OCC1CCCCN1Cc1cccc(-c2ccnc(Nc3cccc(O)c3)n2)c1 (stereo not shown) [Compound 103, 3-{4-[3-(2-Hydroxymethyl-piperidin-1-ylmethyl)-phenyl]-pyrimidin-2-ylamino}-phenol] | – | – | 0.64 µM | 0.14 µM | – | – | 6.9 µM | 7 µM | 5.6 µM | 6.5 ± 0.8 µM
10 | COc1cccc(Nc2nccc(-c3cccc(Cn4cncn4)c3)n2)c1 [Compound 35, (3-Methoxy-phenyl)-[4-(3-[1,2,4]triazol-1-ylmethyl-phenyl)-pyrimidin-2-yl]-amine] | 0.92 µM | 0.57 µM | 0.58 µM | 0.069 µM | 0.1 µM | 3.2 µM | 15 µM | 7.7 µM | 23.2 µM | 15.3 ± 7.7 µM
11 | CN(C)c1ccc(Nc2nccc(-c3cccc(Cn4cncn4)c3)n2)cc1 [Compound 43, N,N-Dimethyl-N′-[4-(3-[1,2,4]triazol-1-ylmethyl-phenyl)-pyrimidin-2-yl]-benzene-1,4-diamine] | 3.7 µM | 1.9 µM | 1.4 µM | 0.53 µM | 0.19 µM | – | 14.9 µM | 7.8 µM | 30.9 µM | 17.9 ± 11.8 µM
12 | N#Cc1cccc(Nc2nccc(-c3cccc(Cn4cncn4)c3)n2)c1 [Compound 36, 3-[4-(3-[1,2,4]triazol-1-ylmethyl-phenyl)-pyrimidin-2-ylamino]-benzonitrile] | 0.079 µM | 4.7 µM | 0.32 µM | 0.009 µM | 0.032 µM | 3.9 µM | – | – | – | –
13 | O=[N+]([O-])c1cccc(Nc2nccc(-c3cccc(Cn4cncn4)c3)n2)c1 [Compound 30, (3-Nitro-phenyl)-[4-(3-[1,2,4]triazol-1-ylmethyl-phenyl)-pyrimidin-2-yl]-amine] | 0.04 µM | – | 0.57 µM | 0.002 µM | 0.019 µM | – | 8 µM | 7.1 µM | 4.4 µM | 6.5 ± 1.8 µM
14 | COc1ccc(-c2ccnc(Nc3cccc([N+](=O)[O-])c3)n2)cc1 [Compound 94, [4-(4-Methoxy-phenyl)-pyrimidin-2-yl]-(3-nitro-phenyl)-amine] | 0.3 µM | – | 0.99 µM | 0.02 µM | 0.03 µM | 0.93 µM | – | – | – | –
15 | c1cc(Cn2cncn2)cc(-c2ccnc(Nc3ccc(N4CCOCC4)cc3)n2)c1 [Compound 32, (4-Morpholin-4-yl-phenyl)-[4-(3-[1,2,4]triazol-1-ylmethyl-phenyl)-pyrimidin-2-yl]-amine] | 4.4 µM | 2.2 µM | 4 µM | 0.42 µM | 0.37 µM | – | 19.7 µM | 6.1 µM | 40.3 µM | 22 ± 17.2 µM
16 | COc1ccc(-c2ccnc(Nc3ccc(OC)nc3)n2)cc1 [Compound 124, [4-(4-Methoxy-phenyl)-pyrimidin-2-yl]-(6-methoxy-pyridin-3-yl)-amine] | – | 1.5 µM | – | 0.02 µM | 0.09 µM | 1.1 µM | – | – | – | –
17 | OCC1CCCCN1Cc1cccc(-c2ccnc(Nc3ccc(N4CCOCC4)cc3)n2)c1 (stereo not shown) [Compound 101, (1-{3-[2-(4-Morpholin-4-yl-phenylamino)-pyrimidin-4-yl]-benzyl}-piperidin-2-yl)-methanol] | – | – | 1.6 µM | 2.9 µM | – | – | 17.3 µM | 6 µM | 25 µM | 16.1 ± 9.6 µM
18 | COc1ccc(Nc2nccc(-c3cccc(Cn4cncn4)c3)n2)cn1 [Compound 50, (6-Methoxy-pyridin-3-yl)-[4-(3-[1,2,4]triazol-1-ylmethyl-phenyl)-pyrimidin-2-yl]-amine] | 1.8 µM | 9.4 µM | 0.65 µM | 0.044 µM | 0.084 µM | – | 14.3 µM | 11.9 µM | 33.8 µM | 20 ± 12 µM
19 | COc1ccc(OC)c(-c2ccnc(Nc3cccc([N+](=O)[O-])c3)n2)c1 [Compound 44, [4-(2,5-Dimethoxy-phenyl)-pyrimidin-2-yl]-(3-nitro-phenyl)-amine] | 17 µM | – | – | – | 0.49 µM | – | 1.5 µM | 1.3 µM | 1 µM | 1.3 ± 0.3 µM
